Read-outs that look alike come from different tables or passages of the source.
What was measured:
TbINO1 = target: T1, TbINO1 (Trypanosoma brucei brucei, UniProt Q5QQ46); assay: biochemical; assay type: binding; conditions: for TbINO1 Tm increase: positive control
T1 sequence (Q5QQ46 1-528): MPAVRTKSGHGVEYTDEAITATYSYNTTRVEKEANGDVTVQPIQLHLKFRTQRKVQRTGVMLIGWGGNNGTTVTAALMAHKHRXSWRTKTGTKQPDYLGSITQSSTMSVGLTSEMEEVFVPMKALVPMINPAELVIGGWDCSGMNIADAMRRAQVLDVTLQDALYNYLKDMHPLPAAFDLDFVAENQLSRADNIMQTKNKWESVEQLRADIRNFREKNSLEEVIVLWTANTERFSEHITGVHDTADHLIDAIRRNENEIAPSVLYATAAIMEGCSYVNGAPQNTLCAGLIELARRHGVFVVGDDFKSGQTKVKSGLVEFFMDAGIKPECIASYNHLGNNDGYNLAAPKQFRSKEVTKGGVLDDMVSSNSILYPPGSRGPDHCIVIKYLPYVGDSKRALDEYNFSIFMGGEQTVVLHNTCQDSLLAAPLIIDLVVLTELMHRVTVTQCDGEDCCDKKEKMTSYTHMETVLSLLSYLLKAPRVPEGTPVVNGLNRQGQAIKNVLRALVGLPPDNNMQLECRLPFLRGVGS

A549 cells = assay: Cytotoxicity against A549 cells, Alamar Blue; assay type: cell-based; conditions: Supplementary Table 1, compound 0.5 mM, percentage of controls (n=1); for viability at 500 µM: Homo sapiens, A549, 65 h
Procedure, shortened: (§1)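 Seed HeLa/A549 at 2 × 10^4 cells/well in DMEM/10% FCS/2 mM L-Gln; treat ~65 h; add Alamar Blue, 5 h more.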

HeLa cells = assay: cells; conditions: for viability at 500 µM: 65 h; for HeLa Cells Alamar Blue: Supplementary Table 1
Procedure, shortened: as §1

[1] = Homo sapiens, HeLa, read-out: HeLa Cells Alamar Blue
[2] = read-out: Tb Ino1 Tm Shift [˚C]
[3] = Homo sapiens, HeLa, read-out: HeLa Cells Alamar Blue, Supplementary Table 1, compound 0.5 mM, percentage of controls, mean ± SD (n=3) or SE (n=2)
[4] = Homo sapiens, HeLa, read-out: HeLa Cells Alamar Blue (% survival)
[5] = compound 0.5 mM, percentage of controls, mean ± SD (n=3) or SE (n=2)
[6] = Supplementary Table 1, compound 1mM, mean ± SD from Boltzman curve fitting, read-out: Tb Ino1 Tm Shift [˚C]

Structure (SMILES)	viability at 500 µM (A549 cells) [%]	viability at 500 µM (HeLa cells; [1]) [%]	ΔTm at 1000 µM (TbINO1; [2]) [°C]	further results
O=CC[C@@H](O)[C@H](O)[C@H](O)COP(=O)(O)O [2-deoxy-glucose-6-phosphate, reference compound]				TbINO1 Tm increase (TbINO1; inhibitor, 4 mM): 2.84 ± 0.47 °C
NCc1ccoc1 [compound 5, 3‐furylmethylamine]	113	101 ± 5.3	0.3 ± 0.06	
Cc1cc(N)[nH]n1 [compound 6, 3‐methyl‐1H‐pyrazol‐5‐amine]	121	102 ± 3.3	0.2 ± 0.06	
Cn1nccc1N [compound 7, 1‐methyl‐1H‐pyrazol‐5‐ylamine]	124	106 ± 6.2	0.12 ± 0.06	
Cn1ccc(N)n1 [compound 8, 1‐methyl‐1H‐pyrazol‐3‐amine]	122	107 ± 7.8	0.09 ± 0.07	
Cc1cc(N)no1 [compound 9, 5‐methylisoxazol‐3‐amine]	112		0.13 ± 0.06	viability at 500 µM (HeLa cells; [3]): 105 ± 6.2%
CC1OCCC1=O (centres unmarked) [compound 11, 2‐methyltetrahydrofuran‐3‐one]	85.3	101 ± 5.4	0.77 ± 0.06	
O=C1CCOCC1 [compound 12, tetrahydro‐4H‐pyran‐4‐one]	97.4	100 ± 3.5	0.23 ± 0.07	
C1CNCCNC1 [compound 13, 1,4‐diazepane]	82.4	88.5 ± 11.1	0.4 ± 0.07	
Cn1cncc1C#N [compound 15, 1‐methyl‐1H‐imidazole‐5‐carbonitrile]	90	101 ± 9.5	0.08 ± 0.07	
Cc1ccc(N)nc1 [compound 16, 5‐methylpyridin‐2‐amine]	89.4	101 ± 1.1	0.12 ± 0.06	
Cc1ccc[nH]c1=O [compound 17, 3‐methyl‐1,2‐dihydropyridin‐2‐one]	87.2	106 ± 11.4	0.81 ± 0.08	
OCc1ccncc1 [compound 18, 4‐pyridinylmethanol]	102	104 ± 3.9	0.36 ± 0.07	
Cc1cccc(O)n1 [compound 19, 6‐methylpyridin‐2‐ol]	85.6	103 ± 7.6	0.09 ± 0.08	
CC(=O)c1cc[nH]c1 [compound 20, 1-(1H-pyrrol-3-yl)ethan-1-one]	121	102 ± 4.3		viability at 500 µM (HeLa cells; [4]): 102 ± 4.3%; CC50 (HeLa cells; Homo sapiens, HeLa, read-out: HeLa ED50): > 5 mM; ΔTm at 1000 µM (TbINO1; read-out: TbIno1 Tm shift [°C]): 1.88 ± 0.08 °C
OCc1cnccn1 [compound 23, 2‐pyrazinylmethanol]	75.9	77.5 ± 12.3	0.27 ± 0.07	
Cc1cc(N)n(C)n1 [compound 26, 1,3‐dimethyl‐1H‐pyrazol‐5‐amine]	70.1	85.5 ± 9.4	0.54 ± 0.07	
O=C(O)c1ccco1 [compound 27, 2‐furoic acid]	107	95.7 ± 9.4	0.17 ± 0.06	
O=C(O)c1ccoc1 [compound 28, 3-furoic acid]	111	48.2 ± 11.8		viability at 500 µM (HeLa cells; [4]): 48.2 ± 11.8%; ΔTm at 1000 µM (TbINO1; read-out: TbIno1 Tm shift [°C]): 3.72 ± 0.08 °C
Oc1ccc(F)cc1 [compound 29, 4‐fluorophenol]	88.4		0.23 ± 0.08	viability at 500 µM (HeLa cells; [3]): 96.2 ± 7.7%
Cc1ccc(CO)o1 [compound 30, (5-methyl-2-furyl)methanol]	23.7	23.3 ± 18.6		viability at 500 µM (HeLa cells; [4]): 23.3 ± 18.6%; ΔTm at 1000 µM (TbINO1; read-out: TbIno1 Tm shift [°C]): 3.79 ± 0.08 °C
CC1=NNC(=O)CC1 [compound 31, 6‐methyl‐2,3,4,5‐tetrahydropyridazin‐3‐one]				A549 Cells Alamar Blue (A549 cells): 68.2 percentage of controls; HeLa Cells Alamar Blue (HeLa cells; [5]): 85.4 ± 6.1 percentage of controls; Tb Ino1 Tm Shift [˚C] (TbINO1; Supplementary Table 1, compound 1mM, mean ± SD from Boltzman curve fitting): 0.22 ± 0.07 °C
CN1CCN(C)C1=O [compound 35, 1,3‐dimethylimidazolidin‐2‐one]	92.7	101 ± 6.6		ΔTm at 1000 µM (TbINO1; [6]): 0.04 ± 0.07 °C
CC1CNC(C)CN1 (centres unmarked) [compound 36, 2,5‐dimethylpiperazine]	76.6	91.3 ± 12.1	0.18 ± 0.08	

Structure (SMILES)	viability at 500 µM (A549 cells) [%]	viability at 500 µM (HeLa cells; [1]) [%]	ΔTm at 1000 µM (TbINO1; [2]) [°C]	further results
O=C(O)[C@H]1CCCN1 [compound 37, D‐proline]	78.6	94.8 ± 10.1	0.41 ± 0.06	
OCc1nccs1 [compound 38, 1,3‐thiazol‐2‐ylmethanol]	95	99.4 ± 4.1	0.18 ± 0.09	
Cc1nnc(N)s1 [compound 39, 5‐methyl‐1,3,4‐thiadiazol‐2‐amine]	72.3	105 ± 14.5	0.31 ± 0.08	
O=C(O)C1CCCO1 (centres unmarked) [compound 42, tetrahydro‐2‐furancarboxylic acid]	75.1	81.9 ± 17	0.3 ± 0.08	
COC(=O)C1NCCS1 (centres unmarked) [compound 44]	75.7	85.7 ± 19.3	0.11 ± 0.06	viability at 500 µM (HeLa cells; [4]): 108 ± 15.9%; ΔTm at 1000 µM (TbINO1; read-out: TbIno1 Tm shift [°C]): 2.81 ± 0.1 °C
NC1CCSCC1 [compound 45, tetrahydrothiopyran‐4‐ylamine]	95.6	88.6 ± 3.1	0.24 ± 0.07	
N#CCc1ccccn1 [compound 46, 2‐(2‐pyridyl)acetonitrile]	82.6	63.2 ± 17.9	1.11 ± 0.24	
N#Cc1ccc(F)cc1 [compound 51, 4‐fluorobenzonitrile]	64.2	90.9 ± 7.5		ΔTm at 1000 µM (TbINO1; [6]): 0.1 ± 0.08 °C
CCc1cccc(C)n1 [compound 52, 2‐ethyl‐6‐methylpyridine]	70.8	89.7 ± 9.7	0.4 ± 0.08	
Cc1noc(C)c1C#N [compound 53, 3,5‐dimethyl‐4‐isoxazolecarbonitrile]	84.5	89.3 ± 2.8	0.52 ± 0.09	
CNCc1ccncc1 [compound 56, N‐methyl‐N‐(4‐pyridinylmethyl)amine]	78.5	87.9 ± 9.9	0.01 ± 0.08	
COc1cccc(N)c1 [compound 61, 3‐methoxyaniline]	69.2	48.7 ± 8.9		ΔTm at 1000 µM (TbINO1; [6]): 0.19 ± 0.07 °C
Cc1ccc(O)c(C)n1 [compound 64, 2,6‐dimethylpyridin‐3‐ol]	80.6	103 ± 13.2	0.13 ± 0.07	
COc1ncccc1N [compound 65, 2‐methoxypyridin‐3‐amine]	75.4	66.6 ± 18.7	1.46 ± 0.07	
Nc1ccc(CO)cn1 [compound 66, (6‐amino‐3‐pyridinyl)methanol]	85.1	80.3 ± 9.7	0.24 ± 0.09	
Cc1nc(C#N)cs1 [compound 67, 2‐methyl‐1,3‐thiazole‐4‐carbonitrile]	89.7	96.1 ± 9.2	0.01 ± 0.07	
O=C(O)Cc1ccc(Cl)c(Cl)c1 [compound 659, 2‐(3,4‐dichlorophenyl)acetic acid]	106	74 ± 17.1		
COc1cc2c(cc1OC)C(C)=NCC2 [compound 664, 6,7‐dimethoxy‐1‐methyl‐3,4‐dihydroisoquinoline]				A549 Cells Alamar Blue (A549 cells): 77.7 percentage of controls; HeLa Cells Alamar Blue (HeLa cells; [5]): 75.4 ± 2.2 percentage of controls
O=C(O)c1ccc(CN2CCCC2)cc1 [compound 665, 4‐(pyrrolidin‐1‐ylmethyl)benzoic acid]	104	90.3 ± 6.3		
OCc1ccc(CN2CCCCC2)cc1 [compound 669, [4‐(piperidin‐1‐ylmethyl)phenyl]methanol]	121	93.2 ± 12.6		
CNCc1ccnc(N2CCCCC2)c1 [compound 671, N‐methyl‐N‐[(2‐piperidin‐1‐ylpyridin‐4‐yl)methyl]amine]				A549 Cells Alamar Blue (A549 cells): 82.7 percentage of controls; HeLa Cells Alamar Blue (HeLa cells; [5]): 54.8 ± 9.2 percentage of controls
CCOC(=O)c1sc(Cl)nc1C [compound 672, ethyl 2‐chloro‐4‐methyl‐1,3‐thiazole‐5‐carboxylate]				A549 Cells Alamar Blue (A549 cells): 60.5 percentage of controls; HeLa Cells Alamar Blue (HeLa cells; [5]): 89.6 ± 12.5 percentage of controls
O=C[C@H](O)[C@@H](O)[C@H](O)[C@H](O)COP(=O)(O)O [glucose-6-phosphate, reference compound]				TbINO1 Tm increase (TbINO1; substrate, 5 mM): 0.70 ± 0.28 °C

Reference: paper PMC3199943, “Screening the MayBridge Rule of 3 Fragment Library for Compounds That Interact with the Trypanosoma brucei myo-Inositol-3-Phosphate Synthase and/or Show Trypanocidal Activity” (Molecular Biology International, 2011)
